Results: US20240024261A1, “PHARMACEUTICAL COMPOSITION FOR IMPROVING COGNITIVE ABILITY OR ENHANCING MEMORY” (DR. RAYMOND LAB INC, priority 2020, published 2024)
“And” between values parts separate entries of the source, which are not always exact repeats. Equal entries are not always repeated.

Experiments:
Assay type in all cases: in vivo, mouse
[1] = tested on: sphingoid base; assay: Sphingoid base content in brain tissue (forebrain); design: Sphingoid base content, Sphingosine (SPN) / Sphingoid base content, S1P / Sphingoid base content, Sphinganine (Sa) / Sphingoid base content, Sa1P: unit not given here; details: for Sphingoid base content, S1P / Sphingoid base content, Sa1P / Sphingoid base content, Sphinganine (Sa) / Sphingoid base content, Sphingosine (SPN): Neuromide 100 mg/kg oral, scopolamine
Experimental: Two types of forebrain parts of the experimental groups G1, G2, and G5 in the separated brain tissue were secured, respectively, the contents of sphingoid base were analyzed, and the average and the deviation were calculated.
At this time, the measurement of contents of sphingosine (SPN), sphinganine (Sa), sphingosine-1-phosphate (S1P), and sphinganine-1-phosphate (Sa1P) which are sphingoid bases was performed by confirmation and quantitative method of sphingoid bases commonly known to a person skilled in the art.

[2] = Body weight during the test; details: mean ± standard error
Experimental: For all objects of each experimental group, when drug administration started, the body weight was measured twice a week from the start of administration until the end of the experiment, and was measured on the date of the final autopsy.

[3] = tested on: TNF-α; assay: Inflammatory cytokine TNF-α in hippocampus (ELISA); details: scopolamine, mean ± standard error
Experimental: (§1) On the next day of the end of the passive avoidance test, the test material was administered, and the objects were allowed to stand in a home cage for 30 minutes. Subsequently, Scopolamine was intraperitoneally administered at a dose of 1 mg/kg, and then the objects were allowed to stand in a home cage for 30 minutes.
(§2) A brain tissue was separately separated and stored at −70° C. until analysis.
(§3) Inflammatory cytokine in a brain tissue was measured with a supernatant liquid obtained by adding a tissue protein extraction reagent (Biovision, CA, USA) to a brain tissue, crushing it, and centrifuging it, using an ELISA Kit (R&D System, MN, USA).

[4] = tested on: IL-1β; assay: Inflammatory cytokine IL-1β in hippocampus (ELISA); details: scopolamine, mean ± standard error
Experimental: as §1, §2, §3

[5] = tested on: ceramide; assay: Ceramide content in brain tissue (forebrain); details: for Ceramide content, N-acyl chain length C14 / Ceramide content, N-acyl chain length C16 / Ceramide content, N-acyl chain length C18 / Ceramide content, N-acyl chain length C20 / Ceramide content, N-acyl chain length C22 / Ceramide content, N-acyl chain length C24 / Ceramide content, N-acyl chain length C24:1 / Ceramide content, N-acyl chain length C26 / Ceramide content, N-acyl chain length C26:1 / Ceramide content, Total: Neuromide 100 mg/kg oral, scopolamine
Experimental: Two types of forebrain parts of experimental groups G1, G2, and G5 in the brain tissues separated above were secured, respectively.
The ceramide contents were analyzed therefrom, and the average and the deviation thereof were calculated.
At this time, the measurement of the ceramide content was performed by confirmation and quantitative method of ceramide commonly known to a person skilled in the art.

[6] = tested on: acetylcholine; assay: Acetylcholine content in hippocampus after passive avoidance test; details: scopolamine, mean ± standard error
Experimental: as §1, §2
A choline assay buffer (Biovision, CA, USA) was added to a hippocampal tissue of the separated brain, crushed, and then centrifuged to obtain a supernatant liquid, which was used in the test.
The amount of acetylcholine in the supernatant liquid was measured using a choline/acetylcholine quantification kit (Biovision, CA, USA).

[7] = Average of two forebrain samples
[8] = individual forebrain samples 5-2, 5-3, listed as Example 3

In the case of `CCCCCCCCCCCCCCCC(=O)NC(CO)CO` [Neuromide, N-palmitoyl serinol], the “Sphingoid base content, S1P” value [1, 7] is reported as 183.74, the “Sphingoid base content, Sa1P” value [1, 7] is reported as 69.57 and the “Sphingoid base content, Sphinganine (Sa)” value [1, 7] is reported as 545.74. For the same compound, the “Sphingoid base content, Sphingosine (SPN)” value [1, 7] was 2010.00, the “S1P increase as compared with the normal control group” value ([1]; forebrain, Neuromide 100 mg/kg) was no less than 20% and the “Sphingoid base content, S1P” value [1, 8] was 159.43 and 208.05. For the same compound, the “Sphingoid base content, Sa1P” value [1, 8] was 69.16 and 69.98, the “Sphingoid base content, Sphinganine (Sa)” value [1, 8] was 506.47 and 585.01 and the “Sphingoid base content, Sphingosine (SPN)” value [1, 8] was 1861.23 and 2158.78. The Weight ([2]; Neuromide 16 mg/kg oral, day 0 after administration) was 34.9 ± 0.4 g, the Weight ([2]; Neuromide 16 mg/kg oral, day 1 after administration) was 35.1 ± 0.4 g and the Weight ([2]; Neuromide 16 mg/kg oral, day 5 after administration) was 35.9 ± 0.4 g. For the same compound, the Weight ([2]; Neuromide 16 mg/kg oral, day 8 after administration) was 36.4 ± 0.5 g, the Weight ([2]; Neuromide 16 mg/kg oral, day 12 after administration) was 36.4 ± 0.5 g and the Weight ([2]; Neuromide 16 mg/kg oral, day 15 after administration) was 36.3 ± 0.6 g. The Weight ([2]; Neuromide 16 mg/kg oral, day 19 after administration) was 37.3 ± 0.7 g, the Weight ([2]; Neuromide 16 mg/kg oral, day 22 after administration) was 37.2 ± 1^ g and the Weight ([2]; Neuromide 16 mg/kg oral, day 26 after administration) was 37.2 ± 0.8 g. The Weight ([2]; Neuromide 16 mg/kg oral, day 29 after administration) was 37.1 ± 0.9 g, the Weight ([2]; Neuromide 40 mg/kg oral, day 0 after administration) was 34.9 ± 0.4 g and the Weight ([2]; Neuromide 40 mg/kg oral, day 1 after administration) was 35.5 ± 0.4 g. It also gave a Weight ([2]; Neuromide 40 mg/kg oral, day 5 after administration) of 36 ± 0.3 g, a Weight ([2]; Neuromide 40 mg/kg oral, day 8 after administration) of 36.7 ± 0.4 g and a Weight ([2]; Neuromide 40 mg/kg oral, day 12 after administration) of 37.2 ± 0.4 g. The Weight ([2]; Neuromide 40 mg/kg oral, day 15 after administration) was 37.5 ± 0.4 g, the Weight ([2]; Neuromide 40 mg/kg oral, day 19 after administration) was 37.8 ± 0.4 g and the Weight ([2]; Neuromide 40 mg/kg oral, day 22 after administration) was 38 ± 0.4 g. It also gave a Weight ([2]; Neuromide 40 mg/kg oral, day 26 after administration) of 38.3 ± 0.4 g, a Weight ([2]; Neuromide 40 mg/kg oral, day 29 after administration) of 37.9 ± 0.5 g and a Weight ([2]; Neuromide 100 mg/kg oral, day 0 after administration) of 34.9 ± 0.4 g. The Weight ([2]; Neuromide 100 mg/kg oral, day 1 after administration) was 35.3 ± 0.5 g, the Weight ([2]; Neuromide 100 mg/kg oral, day 5 after administration) was 36.2 ± 0.5 g and the Weight ([2]; Neuromide 100 mg/kg oral, day 8 after administration) was 36.7 ± 0.7 g. It also gave a Weight ([2]; Neuromide 100 mg/kg oral, day 12 after administration) of 37.6 ± 0.5 g, a Weight ([2]; Neuromide 100 mg/kg oral, day 15 after administration) of 38 ± 0.6 g and a Weight ([2]; Neuromide 100 mg/kg oral, day 19 after administration) of 38.6 ± 0.6 g. For the same compound, the Weight ([2]; Neuromide 100 mg/kg oral, day 22 after administration) was 38.4 ± 0.7 g, the Weight ([2]; Neuromide 100 mg/kg oral, day 26 after administration) was 38.8 ± 0.6 g and the Weight ([2]; Neuromide 100 mg/kg oral, day 29 after administration) was 38.9 ± 0.8 g. For the same compound, the TNF-α ([3]; Neuromide 16 mg/kg oral) was 211.5 pg/mg tissue protein and 211.5 ± 25.3 pg/mg tissue protein, the TNF-α ([3]; Neuromide 40 mg/kg oral) was 196.2 pg/mg tissue protein and 196.2 ± 28.4 pg/mg tissue protein and the TNF-α ([3]; Neuromide 100 mg/kg oral) was 189.2 pg/mg tissue protein and 189.2 ± 33 pg/mg tissue protein. The IL-1β ([4]; Neuromide 16 mg/kg oral) was 194.7 pg/mg tissue protein and 194.7 ± 30.6 pg/mg tissue protein, the IL-1β ([4]; Neuromide 40 mg/kg oral) was 188.6 pg/mg tissue protein and 188.6 ± 32.4 pg/mg tissue protein and the IL-1β ([4]; Neuromide 100 mg/kg oral) was 151.5 pg/mg tissue protein and 151.5 ± 24.9 pg/mg tissue protein. The “Ceramide content, N-acyl chain length C14” value [5, 7] was 2.71, the “Ceramide content, N-acyl chain length C16” value [5, 7] was 284.09 and the “Ceramide content, N-acyl chain length C18” value [5, 7] was 3956.61. The “Ceramide content, N-acyl chain length C20” value [5, 7] was 92.88, the “Ceramide content, N-acyl chain length C22” value [5, 7] was 51.78 and the “Ceramide content, N-acyl chain length C24” value [5, 7] was 68.30. For the same compound, the “Ceramide content, N-acyl chain length C24:1” value [5, 7] was 453.42, the “Ceramide content, N-acyl chain length C26” value [5, 7] was 11.09 and the “Ceramide content, N-acyl chain length C26:1” value [5, 7] was 4.59. For the same compound, the “Ceramide content, Total” value [5, 7] was 4925.46, the ceramide synthesis amount ([5]; forebrain, Neuromide 100 mg/kg) was “significantly increased” and the “Ceramide content, N-acyl chain length C14” value [5, 8] was 2.92 and 2.50. For the same compound, the “Ceramide content, N-acyl chain length C16” value [5, 8] was 288.68 and 279.51, the “Ceramide content, N-acyl chain length C18” value [5, 8] was 3980.71 and 3932.52 and the “Ceramide content, N-acyl chain length C20” value [5, 8] was 94.95 and 90.81. For the same compound, the “Ceramide content, N-acyl chain length C22” value [5, 8] was 60.05 and 43.51, the “Ceramide content, N-acyl chain length C24” value [5, 8] was 77.31 and 59.29 and the “Ceramide content, N-acyl chain length C24:1” value [5, 8] was 498.48 and 408.35. The “Ceramide content, N-acyl chain length C26” value [5, 8] was 12.46 and 9.72, the “Ceramide content, N-acyl chain length C26:1” value [5, 8] was 4.78 and 4.40 and the “Ceramide content, Total” value [5, 8] was 5020.32 and 4830.60. For the same compound, the Acetylcholine ([6]; Neuromide 16 mg/kg oral) was 1.1 Nmol/mg protein and 1.1 ± 0.1 Nmol/mg protein, the Acetylcholine ([6]; Neuromide 40 mg/kg oral) was 1.1 Nmol/mg protein and 1.1 ± 0.3 Nmol/mg protein and the Acetylcholine ([6]; Neuromide 100 mg/kg oral) was 1.5 Nmol/mg protein and 1.5 ± 0.2 Nmol/mg protein.
